Where two headings read alike, the source gives them in different places. Where no end group is shown, it is not given here.
Assays:
[1] = system: CHO cells expressing the human 5HT1aR; experiment: Forskolin-stimulated cAMP production (EIA); assay type: cell-based; details: for [cAMP] (SEM), relative to FSK-stimulated control: 30 uM FSK, 100 uM IBMX, 20 min 37°C, control = 100; for FSK stimulated cAMP (%): Figure 5, IBMX, FSK control = 100
Experimental: CHO cells were cultured to confluency in 12- or 24-well plates. Medium was aspirated, and the cells were rinsed twice in warm, serum-free F-12 medium. Cells were incubated for 20 min. at 37°C in 0.5 mls of serum-free F-12 medium containing 100 uM isobutylmethylxanthine (IBMX) and the following substances (final concs.) alone or in combination (see Figures 3 and 5): 30 μM forskolin (FSK; for all treatments); 1 μM 5-HT; peptide concentrations as noted in figure legends. Reactions were stopped by aspiration of medium and addition of 0.5 mL of 100 mM HCl. After 10 min., well contents were removed and centrifuged at 4000 rpm. Supernatants were diluted in 100 mM HCl, and cAMP was quantified directly in a microplate format by enzyme immunoassay (EIA) with a kit from Assay Designs (Ann Arbor). Triplicate-independent samples were assayed.

[2] = system: Gi in H5-HT1aR membranes from transfected CHO cells; experiment: [35S]GTPγS incorporation into Gi; assay type: biochemical, human; details: for GTP Incorp. (SEM), γ-[35S]-GTP into Gi, percent of control: peptide 30 uM (Figure 2), basal control = 100, 30 min 30°C
Experimental: H5-HT1aR membranes from transfected CHO cells were incubated with 5-HT (0.1 μM) and/or peptide concentrations as noted in figure legends (see Figures 2 and 4) and the following incubation mixture: 20 mM HEPES buffer, pH 7.4, 5 mM MgCl2, 1 mM EDTA, 1 mM DTT, 100 mM NaCl, 100 uM GDP, 10 μM pargyline, 0.2 mM ascorbate, and 0.1 nM [35S]GTPγS [53, 58]. Mixtures were incubated for 30 min. at 30°C, and were terminated by dilution in cold buffer. The mixture was filtered on GF/C filters, rinsed twice in buffer, dried and counted by liquid scintillation. All values reported in are for specific binding (total nonspecific) of triplicates. Nonspecific binding was determined in the presence of cold γ-S-GTP (10 uM). Negative control is the above mixture minus test drug or 5HT. Positive control contains 5HT.

H5-HT1aR [3] = target: T1, H5-HT1aR (Homo sapiens, UniProt P08908); details: cited from earlier work
T1 construct: expressed in transfected cells; host or cells: CHO cells (Chinese hamster ovary), crude membranes
T1 sequence (P08908 1-422): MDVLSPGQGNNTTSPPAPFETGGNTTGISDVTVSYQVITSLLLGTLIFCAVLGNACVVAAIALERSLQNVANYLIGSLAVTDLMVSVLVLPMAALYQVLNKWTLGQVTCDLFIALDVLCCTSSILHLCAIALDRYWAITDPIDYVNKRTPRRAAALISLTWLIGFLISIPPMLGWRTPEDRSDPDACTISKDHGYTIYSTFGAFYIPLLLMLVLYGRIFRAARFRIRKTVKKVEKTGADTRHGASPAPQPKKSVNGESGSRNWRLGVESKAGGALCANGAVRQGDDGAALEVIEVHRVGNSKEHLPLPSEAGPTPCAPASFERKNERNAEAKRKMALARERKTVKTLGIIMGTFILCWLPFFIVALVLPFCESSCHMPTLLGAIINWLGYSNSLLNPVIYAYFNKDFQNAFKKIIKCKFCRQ
Source text: (§1) Table 2 ic2 Peptide mimic effect on [3H]8-OH-DPAT binding. All binding inhibition values are percent of control agonist (ag.) bound. The upper portion of the table is for peptides nearer the C-terminus, including P11 from Thiagaraj et al., 2007 [53]. These peptides decreased the specific high affinity binding of 5HT1aR agonist [^3H]-8-OH-DPAT by 50% at the given concentration. The lower portion | column: Conc. (uM); % cont. ag, bound, (SEM) || Table 3 ic3 Peptide mimic coupling and signal transduction data. Summary of data generated for all ic3 experiments with P12 and P13. P1 is included as a reference, from Hayataka et al., 1998 [49]. Nominal values for control agonist binding were 400 fmoles/mg protein. | column: Agonist (%) inhibition

[4] = system: CHO cells expressing the human 5HT1aR; details: cited from earlier work
Source text: as §1, with “[cAMP]” for “Conc. (uM); % cont. ag, bound,”, “% Inhibition of FSK-stimulated cAMP” for “Agonist (%) inhibition”

[5] = system: Gi in H5-HT1aR membranes from transfected CHO cells; details: cited from earlier work
Source text: as §1, with “GTP Incorp.” for “Conc. (uM); % cont. ag, bound,”, “[35S]-γ-S-GTP incorporation% above conro” for “Agonist (%) inhibition”

H5-HT1aR [6] = target: T1, H5-HT1aR; experiment: Inhibition of agonist [3H]8-OH-DPAT binding (measure of receptor-G-protein coupling)
Experimental: Cells were trypsinized and centrifuged at low speed in ice-cold medium. The pellet was resuspended in ice-cold Earle's Balanced Salt Solution followed by centrifugation. Cells were resuspended in 10 mL of ice-cold binding buffer (50 mM Tris, 4 mM CaCl2, 10 μM pargyline, and pH 7.4), homogenized with Teflon-glass, and centrifuged for 450,000 g-min. at 4°C. For a crude membrane preparation, the pellet was resuspended in 30 mL of ice-cold binding buffer, homogenized on Teflon-glass and then by Polytron (setting 4) for 5 seconds, and stored on ice and assayed within the next 1.5 hours.
Binding of the agonist [3H]8-OH-DPAT ([3H]8-hydroxy-2-(di-n-propylamino)tetralin) to H5-HT1aR followed well-characterized protocols. Radioligands were purchased from New England Nuclear (NEN), Boston, MA, and 1 mL reaction mixtures, in triplicate, were incubated for 30 min. in a 30°C shaker. The 1 mL mixture was 700 μL of receptor preparation; 100 μL of binding buffer (for total binding) or 10 μM 5-HT (for nonspecific binding), 100 μL of the tritiated agent (concentration of 0.5 nM [3H] 8-OH-DPAT), and 100 μL of peptide or binding buffer in the case of controls.
Reactions were stopped by addition of 4 mL of ice-cold 50 mM Tris buffer, pH 7.4, and vacuum filtration on glass fiber filters (Whatman GF/B). Filters were rinsed twice in 5 mL of ice-cold Tris buffer, dried, and counted in 5 mL of Ecoscint (National Diagnostics) liquid scintillation fluid in a Beckman LS 6500. Homogenates were assayed for protein to maintain a nominal value of 50 μg protein per filter. All tubes were run in triplicate.

[7] = target: Gi (G protein coupled to the human 5HT1a receptor in CHO cells) (Chinese hamster (endogenous in CHO))
[8] = target: Gi (G protein coupled to the human 5HT1a receptor in CHO cells) (Chinese hamster (endogenous in CHO)); remark: listed apart in the source
[9] = CHO H5-HT1aR membranes, 0.5 nM [3H]8-OH-DPAT, 30 min 30°C, shallow curves, read-out: Conc. (uM) at which specific high affinity [3H]8-OH-DPAT binding is decreased by 50% (IC50)

## NCCc1c[nH]c2ccc(O)cc12 [Peptide 5HT, 5-hydroxytryptamine, reference compound]
[1]; 1 uM 5-HT
  [cAMP] (SEM), relative to FSK-stimulated control: 21 (4) %
[1]; 5HT alone (1 uM per method)
  FSK stimulated cAMP (%): 24 ± 1%

## DPIDYVNKRT [Peptide P25, ic2 loop peptide mimic of H5HT1aR]
[1]; peptide 30 uM (Figure 3)
  [cAMP] (SEM), relative to FSK-stimulated control: 64 (3) %
[2]
  GTP Incorp. (SEM), γ-[35S]-GTP into Gi, percent of control: 126 (10) %

## IALDRYWAITD [Peptide P11, ic2 N-terminal (TM3/ic2) peptide mimic of H5HT1aR from a previous study, Thiagaraj et al., 2007]
H5-HT1aR [3]; CHO H5-HT1aR membranes, ref Thiagaraj et al., 2007 [53], read-out: Conc. (uM) at which specific high affinity [3H]8-OH-DPAT binding is decreased by 50% (IC50)
  IC50: 7 µM
[4]; peptide 30 uM (Figure 3), 30 uM FSK, IBMX, ref Thiagaraj et al., 2007 [53], SEM
  [cAMP] (SEM), relative to FSK-stimulated control: 87 (8) %
[5]; peptide 30 uM (Figure 2), ref Thiagaraj et al., 2007 [53], SEM
  GTP Incorp. (SEM), γ-[35S]-GTP into Gi, percent of control: 100 (3) %

## IDYVNKRTPR [Peptide P26, ic2 loop peptide mimic of H5HT1aR]
[1]; peptide 30 uM (Figure 3)
  [cAMP] (SEM), relative to FSK-stimulated control: 100 (5) %
[2]
  GTP Incorp. (SEM), γ-[35S]-GTP into Gi, percent of control: 111 (9) %

## IFRAARFRIRKTVKK [P1*]
H5-HT1aR [3]; [3H]8-OH-DPAT, ref Hayataka et al., 1998 [49], read-out: Agonist (%) inhibition: concentration giving 50% (IC50)
  IC50: 3 µM
H5-HT1aR [3]; peptide 3 uM, ref Hayataka et al., 1998 [49], read-out: Agonist (%) inhibition
  inhibition: 50%
[4]; peptide 10 uM, ref Hayataka et al., 1998 [49], read-out: % Inhibition of FSK-stimulated cAMP
  inhibition: 10%
[5]; peptide 1 uM, ref Hayataka et al., 1998 [49]
  [35S]-γ-S-GTP incorporation% above conro: 30%

## ITDPIDYVNK [Peptide P24]
[1]; peptide 30 uM (Figure 3)
  [cAMP] (SEM), relative to FSK-stimulated control: 45 (7) %
[2]
  GTP Incorp. (SEM), γ-[35S]-GTP into Gi, percent of control: 146 (17) %

## KTVKKVEKTG [Peptide P12, ic3 peptide mimic of H5HT1aR]
[1]; FSK-stimulated, peptide 30 uM (Figure 5)
  Change in intracellular cAMP concentration (in words): not altered
[1]; peptide alone 30 uM
  FSK stimulated cAMP (%): 100 ± 6%
[1]; peptide 30 uM, read-out: % Inhibition of FSK-stimulated cAMP
  inhibition: 0%
[2]; peptide 30 uM
  [35S]-γ-S-GTP incorporation% above conro: 24%
H5-HT1aR [6]; peptide 30 uM, maximum inhibition possible with the highest soluble concentration
  inhibition: 28%

## LDRYWAITDP [Peptide P21]
H5-HT1aR [6]; [9]
  IC50: 15 µM

## RYWAITDPID [Peptide P22]
H5-HT1aR [6]; [9]
  IC50: 16 µM

## VKKVEKTGAD [Peptide P13]
H5-HT1aR [6]; [3H]8-OH-DPAT, if 50% is listed, the concentration is the IC50, read-out: Agonist (%) inhibition: concentration giving 50% (IC50)
  IC50: 15 µM
H5-HT1aR [6]; peptide 15 uM
  inhibition: 50%

## WAITDPIDYV [Peptide P23]
H5-HT1aR [6]; [9]
  IC50: 30 µM

## YVNKRTPRPR [Peptide P27, ic2 loop peptide mimic of H5HT1aR, C-terminal end]
[1]; peptide 30 uM (Figure 3)
  [cAMP] (SEM), relative to FSK-stimulated control: 132 (6) %
[2]
  GTP Incorp. (SEM), γ-[35S]-GTP into Gi, percent of control: 130 (7) %

## LDRYWAITDP [P21, ic2 loop peptide mimic of the human 5HT1a receptor]
[7]
  IC50 of agonist inhibition: peptide concentration at which specific [3H]8-OH-DPAT binding to H5-HT1aR in CHO membranes falls to about 50% of control (uncoupling of receptor from G protein): 15 µM

## KTVKKVEKTG [P12, ic3 loop peptide mimic of the human 5HT1a receptor]
[8]
  % inhibition of FSK-stimulated cAMP at 30 uM peptide, CHO cells expressing H5HT1aR: -0 % inhibition
  [35S]-γ-S-GTP incorporation into Gi, % above control, at 30 uM peptide, CHO H5HT1aR membranes (% above control): 24
  agonist ([3H]8-OH-DPAT) % inhibition at 30 uM peptide, H5-HT1aR in CHO membranes (maximum inhibition possible with the highest soluble concentration; uncoupling of receptor from G protein): 28 % inhibition

## VKKVEKTGAD [P13, ic3 loop peptide mimic of the human 5HT1a receptor]
[8]
  % inhibition of FSK-stimulated cAMP at 30 uM peptide, CHO cells expressing H5HT1aR (negative: cAMP increased): -24 % inhibition
  IC50 of agonist inhibition: peptide concentration giving 50% inhibition of [3H]8-OH-DPAT binding to H5-HT1aR in CHO membranes (uncoupling of receptor from G protein): 15 µM
  [35S]-γ-S-GTP incorporation into Gi, % above control, at 30 uM peptide, CHO H5HT1aR membranes (% above control): 12

## RYWAITDPID [P22, ic2 loop peptide mimic of the human 5HT1a receptor]
[7]
  IC50 of agonist inhibition: peptide concentration at which specific [3H]8-OH-DPAT binding to H5-HT1aR in CHO membranes falls to about 50% of control (uncoupling of receptor from G protein): 16 µM

## WAITDPIDYV [P23, ic2 loop peptide mimic of the human 5HT1a receptor]
[7]
  IC50 of agonist inhibition: peptide concentration at which specific [3H]8-OH-DPAT binding to H5-HT1aR in CHO membranes falls to about 50% of control (uncoupling of receptor from G protein): 30 µM

Reference: PMC3357532, “Intracellular Loop 2 Peptides of the Human 5HT1a Receptor are Differential Activators of Gi” (International Journal of Peptides, 2012)
